Where “and” joins values, the source holds several entries; their conditions need not be identical. Identical values can stand only once.
Assays:
[1] = test system: FGGsh155:CB[8] hexamer (FGG-tagged phi class glutathione S-transferase GSTF mutant sh155, SEQ ID NO: 2, with cucurbit[8]uril 1:1); assay: Kinetic inhibition analysis with butachlor, hexamer FGGsh155:CB[8]; assay type: biochemical; conditions: constant GSH, variable CDNB
From the text: (§1) FIG. 22 (A-J): Kinetic inhibition analysis of the dimer enzyme sh155 (FIG. 22A, 22C, 22E, 22G, 22I) and the hexamer FGGsh155:CB[8] (FIGS. 22B, 22D, 22F, 22H, 22J). A. & B. Lineweaver-Burk plots for the inhibition of the enzymes by different concentrations of butachlor, at constant concentration of GSH and variable concentration of CDNB. C. & D. Secondary (derivative) graph. The slope values were derived from the Lineweaver-Burk graphs (A) & (B). The intersection point with the x axis corresponds to Ki. E. & F. Secondary (derivative) graph where the data are derived from the Lineweaver-Burk graphs (A) & (B). The intersection point with the x axis corresponds to K. G. & H. Lineweaver-Burk plots for the inhibition of the enzymes by different concentrations of butachlor, at constant concentration of CDNB and variable concentration of GSH. […]. Secondary (derivative) graph. The slope values were derived from the Lineweaver-Burk graphs […], and the intersection point with the x axis corresponds to Ki.
(§2) Kinetic analysis in presence of butachlor aimed to characterize of the type of inhibition, thus the binding site of the inhibitor, as well as to identify possible differences in kinetic behavior between the GST dimer form (sh155) and the hexamer FGGsh155:CB[8] that was used in the immobilization. […]

[2] = test system: Immobilized FGGsh155:CB[8] hexamer (GSTF mutant sh155, FGG-tagged, SEQ ID NO: 2, with cucurbit[8]uril 1:1, on glutaraldehyde-crosslinked chitosan); assay: Butachlor inhibition (IC50) of immobilized FGGsh155:CB[8]; assay type: biochemical; conditions: immobilized on chitosan carrier vs free enzyme
Method: FIG. 21 (A-B): Dose-response inhibition curves of FGGsh155:CB[8] due to the herbicide butachlor for the determination of IC50 value. FIG. 21A. before and FIG. 21B. after immobilization. The data represent the mean±SD (N=3).
(§3) The half maximal inhibitory concentration (IC50), namely the inhibitor concentration that leads to 50% inhibition of the enzyme activity of FGGsh155:CB[8], was determined for constant substrate concentrations and varying butachlor concentrations. The utilised substrate concentrations were equal to the kinetic constant value of S0.5 for CDNB and 2.5 times the CDNB concentration for GSH. The correlation between the butachlor concentration from 0 to 600 nM (0 to 0.6 μM) and the remaining activity (%) of the immobilized enzyme was linear, thus standard curves for known herbicide concentrations were developed. The methodology was tested for drinking water samples derived from the Athens water supply network, as well as commercial mineral water (see Example 11). The results were analysed with the Graphpad Prism software.

[3] = test system: sh155 dimer (phi class glutathione S-transferase GSTF mutant derived by DNA shuffling, SEQ ID NO: 2); assay: Kinetic inhibition analysis with butachlor, dimer sh155; assay type: biochemical; conditions: constant GSH, variable CDNB
From the text: as §1, §2

[4] = buffer; cited from earlier work
[5] = target: sh155 (Triticum aestivum, UniProt Z9G7Y6U750); assay: Kinetic inhibition analysis of dimer sh155 by butachlor; assay type: biochemical
From the text: (§4) Kinetic analysis in presence of butachlor aimed to characterize of the type of inhibition, thus the binding site of the inhibitor, as well as to identify possible differences in kinetic behavior between the GST dimer form (sh155) and the hexamer FGGsh155:CB[8] that was used in the immobilization. […] In the mixed inhibition pattern all of the kinetic constants (Km, kcat) change, and the inhibitor is able to bind to both the free enzyme (Ki) and the enzyme-substrate complex (Ki′) with different affinities. […] This type of inhibition is a sub-case of the mixed inhibition pattern where Ki=Ki′, i.e. the velocity of the reaction is decreased without affecting the affinity with the substrate. In this inhibition type, the inhibitor and the substrate bind independently at different enzyme sites.

[6] = target: FGGsh155:CB[8] (Triticum aestivum, UniProt Z9G7Y6U750); assay: Inhibition of free FGGsh155:CB[8] by butachlor (IC50, kinetic inhibition analysis); assay type: biochemical
Method: as §3, with “The correlation between the butachlor concentration from 0 to 600 nM (0 to 0.6 μM) and the remaining activity (%) of the immobilized enzyme was linear, thus standard curves for known herbicide concentrations were developed.” left out
as §4

[7] = target: T1, immobilized FGGsh155:CB[8] (Triticum aestivum, UniProt Z9G7Y6U750); assay: Determination of butachlor in spiked water samples with the immobilized enzyme biosensor
Method: as §3
The basis for the detection of the herbicide butachlor in water samples was the determination of inhibition induced in the immobilized enzyme form. […] The linear response of inhibition of the immobilized enzyme due to butachlor was described by the equation y=−101.3x+98.07, R^2=0.991 (FIG. 23A). This observation led to the development of a methodology for determination of butachlor in drinking water samples based on the detection of inhibition as determined by a standard reference curve. Accordingly, standard curves were generated for spiked, with known concentrations of butachlor, samples of drinking water from the Athens' supply network (y=−81.84x+98.81, R^2=0.997) and bottled mineral water (y=−72.69x+99.46, R^2=0.995) (FIG. 23B). The detection range of butachlor with this methodology was determined up to 180 μg/L (600 nM) in water samples, with the acceptable amount of a pesticide in surface water at 1.0 μg/L and in drinking water at 0.1 μg/L (Council Directive 98/83/EC). The detection range up to 0.6 μM (180 μg/L) of the developed biosensor, with detection limit at approximately 31 μg/L for butachlor, achieves comparatively high sensitivity and selectivity.
The methodology was evaluated with recovery experiments of spiked drinking water samples, with known but random concentrations of butachlor within the range of the standard curve. […] The correlation between the added and found butachlor tested concentrations for network supply water (R^2 0.9993, p<0.0001) and mineral water (R^2 0.9987, p<0.0001) is depicted in FIG. 23C & 23D.

[8] = target: T1, immobilized FGGsh155:CB[8]; assay: Inhibition of immobilized FGGsh155:CB[8] by butachlor (IC50); assay type: biochemical; conditions: after immobilization on the chitosan carrier
Method: as §3

[9] = test system: human lymphocytes; conditions: cited from earlier work
[10] = towards CDNB (variable CDNB, constant GSH), binding to free enzyme
[11] = towards CDNB, binding to enzyme-substrate complex
[12] = towards GSH (variable GSH, constant CDNB)

CCCCOCN(C(=O)CCl)c1c(CC)cccc1CC [Butachlor, 2-chloro-2,6-diethyl-N-butoxymethyl-acetanilide]
type of inhibition towards CDNB [1]: mixed type inhibition with Ki<Ki′
increase in sensitivity for butachlor after immobilization (IC50 immobilized vs free enzyme) [2]: ten-fold increase in sensitivity
type of inhibition towards CDNB [3]: mixed type inhibition with Ki<Ki′

CCCCOCN(C(=O)CCl)c1c(CC)cccc1CC [butachlor, 2-chloro-2,6-diethyl-N-butoxymethyl-acetanilide]
half-life [4]: up to 2.5 days
type of inhibition towards GSH [5]: non-competitive inhibition
type of inhibition towards the CDNB substrate [5]: mixed type inhibition
Ki [5, 10]: 5.92 µM
Ki [5, 11]: 22.6 µM
Ki [5, 12]: 13.3 µM
type of inhibition towards GSH [6]: non-competitive inhibition
type of inhibition towards the CDNB substrate [6]: mixed type inhibition
IC50 ([6]; free enzyme, before immobilization): 5.14 ± 0.16 µM
Ki [6, 10]: 4.42 µM
Ki [6, 11]: 21.1 µM
Ki [6, 12]: 13.2 µM
Found butachlor ([7]; Athens water supply network, added 0.05 μM): 0.046 ± 0.003 µM
Found butachlor ([7]; Athens water supply network, added 0.2 μM): 0.191 ± 0.001 µM
Found butachlor ([7]; Athens water supply network, added 0.3 μM): 0.308 ± 0.008 µM
Found butachlor ([7]; Athens water supply network, added 0.4 μM): 0.416 ± 0.005 µM
Found butachlor ([7]; Athens water supply network, added 0.6 μM): 0.617 ± 0.003 µM
Found butachlor ([7]; Bottled mineral water, added 0.1 μM): 0.095 ± 0.005 µM
Found butachlor ([7]; Bottled mineral water, added 0.2 μM): 0.215 ± 0.005 µM
Found butachlor ([7]; Bottled mineral water, added 0.3 μM): 0.307 ± 0.005 µM
Found butachlor ([7]; Bottled mineral water, added 0.4 μM): 0.413 ± 0.012 µM
Found butachlor ([7]; Bottled mineral water, added 0.55 μM): 0.56 ± 0.010 µM
detection limit ([7]; developed biosensor): approximately 31 μg/L
detection range ([7]; water samples): up to 180 μg/L and ≤ 600 nM
IC50 [8]: 0.56 ± 0.02 µM
frequency of chromosomal abnormalities [9]: dose-dependent increase in the frequency of chromosomal abnormalities

Source: US20260153494A1 (AGRICUL TURAL UNIVERSITY OF ATHENS, priority 2023, published 2026)
